From publication PMC8648968 (The FEBS journal, 2021)
Entries after “also recorded” stand apart in the source; their conditions may differ. Where no end group is shown, it is not given here. [ ]: non-standard residue; d: D form. pS = N[C@@H](COP(=O)(O)O)C(=O)O

What was measured:
HCE cells = experiment: Hst1 localization by immunofluorescence after DTG pretreatment; type: cell-based, human; details: pretreatment with escalating concentrations of DTG (Fig. S4)
GST-TMEM97 (108-176) = GST-TMEM97 (108-176) (Homo sapiens, UniProt Q5BJF2); experiment: SPR, recombinant GST-TMEM97; type: binding; details: Biacore 8K, pH 7.4, 25 °C
TMEM97 (108-176) = experiment: Circular dichroism, secondary structure on mixing with TMEM97; type: binding; details: CD, pH 7.4, 0.05% DDM, room temperature
full-length TMEM97 = full-length TMEM97 (Homo sapiens, UniProt Q5BJF2); experiment: SPR, recombinant full-length TMEM97; type: binding; details: Biacore 8K, pH 7.4, 25 °C
Sequence of full-length TMEM97 (Q5BJF2 whole entry): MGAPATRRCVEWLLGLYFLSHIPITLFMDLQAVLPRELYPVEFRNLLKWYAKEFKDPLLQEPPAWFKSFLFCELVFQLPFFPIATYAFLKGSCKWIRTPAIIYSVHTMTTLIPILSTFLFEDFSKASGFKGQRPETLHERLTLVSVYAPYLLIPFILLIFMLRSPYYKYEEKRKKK

[1] = target: synthetic TMEM97 (108-176) (Homo sapiens, UniProt Q5BJF2); experiment: SPR, synthetic TMEM97; type: binding; details: Biacore 8K, pH 7.4, 25 °C
HSC70 = details: cited from earlier work
[2] = Circular dichroism, secondary structure of peptide alone in solution; type: physicochemical; details: CD, TMEM97 (108-176) alone, pH 7.4, 0.05% DDM, room temperature, DichroWeb
[3] = target: TMEM97 (S2R) overexpressed in HEK293T cell membranes (UniProt Q5BJF2 1-176); experiment: radioligand binding
[4] = target: T1, Synthetic TMEM97 (108-176); experiment: SPR
T1 peptide: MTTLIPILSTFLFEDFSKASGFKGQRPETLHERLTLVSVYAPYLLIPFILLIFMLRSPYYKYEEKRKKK

[5] = target: Recombinant full-length TMEM97 (Sigma-2 receptor) (UniProt Q5BJF2 1-176); experiment: SPR
[6] = target: Recombinant GST-TMEM97 (108-176) (UniProt Q5BJF2 108-176); experiment: SPR

## Cc1ccccc1NC(=N)Nc1ccccc1C [DTG, 1,3-di-o-tolylguanidine]
HCE cells
  Effect on Hst1 localization: Hst1 localization is reduced by pretreatment with DTG

## HYHKFHRYYDPGSNLYKEHNHGFHHGYKDEFRREpSRDS [Hst1SP]
GST-TMEM97 (108-176)
  Binding by SPR (in words): did not exhibit binding; also recorded: unable to bind
TMEM97 (108-176)
  Change of secondary structure on mixing with TMEM97 (108-176): did not induce increased secondary structural features; also recorded: did not induce increased secondary structural elements
full-length TMEM97
  Binding by SPR (in words): did not exhibit binding; also recorded: unable to bind
[1]
  Binding by SPR (in words): did not bind

## Hst3: histatin-3, histatin family peptide cited from Imamura et al. (DSHAKRHHGYKRKFHEKHHSHRGYRSNYLYDN; Histatin-3; UniProt P15516 20-51, looked up)
HSC70
  Interaction with HSC70: interact with, but not clearly directly bind

## MTTLIPILSTFLFEDFSKASGFKGQRPETLHERLTLVSVYAPYLLIPFILLIFMLRSPYYKYEEKRKKK [TMEM97 (108-176)]
[2]
  Turns content: 14%
  Unordered content: 17%
  β-strand content: 23%

## D[pS]HEKRHHGYRRKFHEKHHSHREFPFYGDYGSNYLYDN [Histatin-1 (Hst1)]
[3]
  Ki: 239 nM
[4]
  Kd: 6.3 µM
[5]
  Kd: 5.3 µM
[6]
  Kd: 6.6 µM
